Data reported in patent US12180139B2, “Method for preparing aminoalkanoic acid derivative containing biphenyl group” (AMTIXBIO CO., LTD., priority 2019, dated 2024).

What was measured:
S. epidermidis (+) = settings: MHB liquid medium, 37° C., 24 hours
S. aureus (+) = settings: MHB liquid medium, 37° C., 24 hours
T. rubrum = settings: 0.5- to 16-fold MIC, 0 to 120 hours; versus Efinaconazole, Amorolfine, Terbinafine, Ciclopirox, Amphotericin B
Description: Specifically, T. rubrum cells (6×10^3 cfu/ ? ) were prepared and aliquoted at 195 ? /well into 96-well plates.

Candida albicans = settings: 50 or 100 μg/mL for 30 minutes; versus Efinaconazole, Tavaborole, Terbinafine, Ciclopirox
Description: To evaluate fast-acting effects of Compound 74, the growth of Candida albicans was studied by treating Candida albicans with Compound 74 or commercially available drug of Efinaconazole, Tavaborole, Terbinafine, or Ciclopirox at the same concentration for the same period of time. Specifically, Candida albicans were prepared at a concentration of 2.5×10^3 cfu/ ? and aliquoted at 195 ? /well into 96-well plates. Subsequently, Candida albicans cells in 96-well plate were treated with Compound 74 or each of the commercially available comparative drugs (50 μg/ ? or 100 μg/ ? ) for 30 minutes, respectively. Next, Compound 74 treated fungal cells were seeded on YPD media (Sigma-Aldrich), and the number of single colonies grown was counted.

[1] = system: C. albicans 12-99 (Mutant); settings: 35° C., 48 hours
Description: (§1) Fungal cells were spread on YPD solid media (Sigma-Aldrich) and then aliquoted into the wells of the 96-well plates (2.5×10^3 microconidia/ ? for T. rubrum and T. mentagrophytes species or was 2.5×10^3 cfu/ ? for Candida albicans, Candida glabrata and Cryptococcus neoformans species, 195 ? /well). […] The compound-treated fungal cells were incubated in a 35° C. incubator for 48 hours (Candida species) and for 72 hours (C. neoformans and Trichophyton species), respectively.

C. glabrata [2] = settings: 35° C., 48 hours; n = 30
Description: as §1

[3] = system: T. mentagrophytes (KCCM60449); settings: 35° C., 72 hours
Description: as §1

A. fumigatus [4] = system: A. fumigatus
Description: as §1

C. tropicalis = settings: 35° C., 48 hours
Description: as §1

T. rubrum (KCCM60443) = settings: 35° C., 72 hours
Description: as §1

C. neoformans [5] = settings: 35° C., 72 hours; n = 10
Description: as §1

T. rubrum (KCCM60450) = settings: 35° C., 72 hours
Description: as §1

[6] = system: C. albicans ATCC90028 (WT); settings: 35° C., 48 hours; n = 30
Description: as §1

A. fumigatus [7] = settings: visual reading; expressed as a range value
Description: (§3) An in vitro antifungal susceptibility test was performed in accordance with the US Clinical and Laboratory Standards Institute (CLSI) guidelines to measure the degree of antifungal activity of the compounds synthesized in the Preparation Examples against opportunistic pathogenic fungi. […] The MIC value (μg/ ? ) is expressed as a range value. Specifically, Candida species and Cryptococcus neoformans were incubated in a Sabouraud dextrose agar (SDA) (Sigma-Aldrich) solid medium for 24 and 48 hours, respectively to obtain single colonies. The obtained single colonies were suspended in 0.85% physiological saline to prepare fungal cell suspension (1 to 5×10^6 cells/ ? ). Fungal cells 2000-fold diluted in RPMI1640 broth (Sigma-Aldrich) were seeded on 96-well plates (5×10^2 to 2.5×10^3 cells/ ? , 195 ? /well). Serial two-fold dilutions (128, 64, 32, 16, 8, 4, 2, 1, and 0.5 μg/ ? ) of compounds were prepared by diluting the compounds synthesized according to the above preparation examples. Then, 5 ? from each dilution was added to the well of the 96-well plate containing fungal cell suspension to give a final suspension of 200 ? per well. […] As a positive control, amphotericin B (AMB), which is highly toxic to the human body but is known as a representative antifungal agent, was used.

C. neoformans [8] = settings: RPMI1640 broth, 35° C., 72 hours, visual reading; expressed as a range value
C. glabrata [9] = settings: RPMI1640 broth, 35° C., 48 hours, visual reading; expressed as a range value
Description: as §3

MRSA = assay: Antibacterial MIC test (CLSI); format: cell-based, Methicillin-resistant Staphylococcus aureus; settings: MHB liquid medium, 37° C., 24 hours
Description: (§2) The MIC test was conducted in accordance CLSI guidelines. […] As a positive control, Nofloxacin and Vancomycin were used.

C. albicans = settings: RPMI1640 broth, 35° C., 48 hours, visual reading; expressed as a range value
S. aureus enterica (−) = assay: Antibacterial MIC test (CLSI); format: cell-based; settings: MHB liquid medium, 37° C., 24 hours
Description: as §2

B. coagulans (+) = assay: Antibacterial MIC test (CLSI); format: cell-based; settings: MHB liquid medium, 37° C., 24 hours
Description: as §2

P. acnes (+) = assay: Antibacterial MIC test (CLSI); format: cell-based; settings: MHB liquid medium, 37° C., 24 hours
Description: as §2

B. subtilis (+) = assay: Antibacterial MIC test (CLSI); format: cell-based; settings: MHB liquid medium, 37° C., 24 hours
Description: as §2

B. cereus (+) = assay: Antibacterial MIC test (CLSI); format: cell-based; settings: MHB liquid medium, 37° C., 24 hours
Description: as §2

L. monocytogenes (+) = assay: Antibacterial MIC test (CLSI); format: cell-based; settings: MHB liquid medium, 37° C., 24 hours
Description: as §2

M. luteus (+) = assay: Antibacterial MIC test (CLSI); format: cell-based; settings: MHB liquid medium, 37° C., 24 hours
Description: as §2

E. coli (−) = assay: Antibacterial MIC test (CLSI); format: cell-based; settings: MHB liquid medium, 37° C., 24 hours
Description: as §2

Candida albicans biofilm = settings: 4, 8, 16 and 32 μg/mL, 24 hours after treatment; versus Caspofungin, Amphotericin B, Efinaconazole

CCCC(N)C(=O)NCCc1ccc(-c2ccc(Cl)c(Cl)c2)cc1.Cl (racemic) [Compound 74, (R)/(S)-2-amino-N-(2-(3′,4′-dichloro-[1,1′-biphenyl]-4-yl)ethyl)pentanamide hydrochloride]
MIC S. epidermidis (+) (S. epidermidis (+)): 8 µg/mL | MIC S. aureus (+) (S. aureus (+)): 8 µg/mL | fungicidal effects (number of single colonies grown, FIG. 2) (T. rubrum): exhibited fungicidal effects at the MIC concentration | fast-acting effects (number of single colonies grown, FIG. 1) (Candida albicans): excellent fast-acting effects | MIC C. albicans 12-99 (Mutant) [1]: 2~8 μg/mL | MIC C. glabrata (C. glabrata [2]): 2~4 μg/mL | MIC T. mentagrophytes (KCCM60449) [3]: 2~8 μg/mL | MIC A. fumigatus (A. fumigatus [4]): 2~8 μg/mL | MIC C. tropicalis (C. tropicalis): 2~4 μg/mL | MIC T. rubrum (KCCM60443) (T. rubrum (KCCM60443)): 1~4 μg/mL | MIC C. neoformans (C. neoformans [5]): 2~4 μg/mL | MIC T. rubrum (KCCM60450) (T. rubrum (KCCM60450)): 2~4 μg/mL | MIC C. albicans ATCC90028 (WT) [6]: 2~4 μg/mL | MIC (μg/mL) A. fumigatus (A. fumigatus [7]): 0.5~4 μg/mL | MIC (μg/mL) C. neoformans (C. neoformans [8]): 0.5~4 μg/mL | MIC (μg/mL) C. glabrata (C. glabrata [9]): 0.5~4 μg/mL | MIC MRSA (MRSA): 8 µg/mL | MIC (μg/mL) C. albicans (C. albicans): 0.5~4 μg/mL | MIC S. aureus enterica (−) (S. aureus enterica (−)): >32 µg/mL | MIC B. coagulans (+) (B. coagulans (+)): 2 µg/mL | MIC P. acnes (+) (P. acnes (+)): 8 µg/mL | MIC B. subtilis (+) (B. subtilis (+)): 8 µg/mL | MIC B. cereus (+) (B. cereus (+)): 16 µg/mL | MIC L. monocytogenes (+) (L. monocytogenes (+)): 8 µg/mL | MIC M. luteus (+) (M. luteus (+)): 8 µg/mL | MIC E. coli (−) (E. coli (−)): 32 µg/mL | biofilm disruption (growth of Candida albicans, FIG. 3) (Candida albicans biofilm): remarkably excellent growth inhibitory effects on Candida albicans through biofilm disruption
